Test results as given in patent publication US20080312212A1, “Organic Compounds” (Novartis AG, priority 2005, published 2008).
Where a name gives a salt, the structure may show the parent alone.

biological target: T1, epithelial sodium channel (ENaC) (Homo sapiens, UniProt P37088+P51168+P51170); assay: Short circuit current (ISC) measurements in Human Bronchial Epithelial cells; assay type: cell-based; conditions: HBECs at air-liquid interface, Ussing chamber, apical addition; read-out: IC50 (inhibition of the amiloride-sensitive ISC)
T1 construct: host or cells: primary human bronchial epithelial cells (HBECs), differentiated at air-liquid interface
T1 sequence (P37088 1-669): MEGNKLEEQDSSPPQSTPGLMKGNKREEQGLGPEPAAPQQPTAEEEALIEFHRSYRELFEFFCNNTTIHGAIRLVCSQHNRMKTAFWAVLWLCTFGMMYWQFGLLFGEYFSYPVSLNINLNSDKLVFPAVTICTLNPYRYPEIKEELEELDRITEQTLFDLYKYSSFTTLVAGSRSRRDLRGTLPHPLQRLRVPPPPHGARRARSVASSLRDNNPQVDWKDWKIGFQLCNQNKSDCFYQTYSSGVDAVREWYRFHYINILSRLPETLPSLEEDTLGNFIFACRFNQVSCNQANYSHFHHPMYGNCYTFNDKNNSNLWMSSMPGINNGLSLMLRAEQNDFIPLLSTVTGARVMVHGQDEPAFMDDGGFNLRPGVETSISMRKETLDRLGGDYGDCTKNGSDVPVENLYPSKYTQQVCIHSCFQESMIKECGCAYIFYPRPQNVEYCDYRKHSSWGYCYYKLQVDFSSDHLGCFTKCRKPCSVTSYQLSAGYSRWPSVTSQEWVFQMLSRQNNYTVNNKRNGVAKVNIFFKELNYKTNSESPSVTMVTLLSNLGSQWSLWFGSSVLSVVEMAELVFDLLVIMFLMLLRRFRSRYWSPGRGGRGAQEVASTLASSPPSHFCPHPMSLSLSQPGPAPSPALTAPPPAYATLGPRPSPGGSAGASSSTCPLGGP
T1 sequence (P51168 1-640): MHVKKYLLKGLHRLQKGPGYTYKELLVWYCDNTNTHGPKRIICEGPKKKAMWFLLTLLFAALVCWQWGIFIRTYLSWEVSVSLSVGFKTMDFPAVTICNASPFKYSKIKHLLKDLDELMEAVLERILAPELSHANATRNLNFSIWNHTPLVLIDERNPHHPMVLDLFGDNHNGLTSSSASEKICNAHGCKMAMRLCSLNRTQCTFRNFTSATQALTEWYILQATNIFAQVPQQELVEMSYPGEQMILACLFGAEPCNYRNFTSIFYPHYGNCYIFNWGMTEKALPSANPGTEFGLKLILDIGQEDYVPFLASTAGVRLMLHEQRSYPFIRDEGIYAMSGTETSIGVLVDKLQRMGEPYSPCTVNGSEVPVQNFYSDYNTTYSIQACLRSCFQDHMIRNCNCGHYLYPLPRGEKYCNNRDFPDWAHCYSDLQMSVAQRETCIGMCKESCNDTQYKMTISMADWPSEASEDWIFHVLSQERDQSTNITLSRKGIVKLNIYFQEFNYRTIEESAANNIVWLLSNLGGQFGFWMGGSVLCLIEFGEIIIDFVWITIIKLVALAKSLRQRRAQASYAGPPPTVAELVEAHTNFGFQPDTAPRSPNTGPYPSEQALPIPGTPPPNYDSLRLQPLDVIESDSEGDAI
T1 sequence (P51170 1-649): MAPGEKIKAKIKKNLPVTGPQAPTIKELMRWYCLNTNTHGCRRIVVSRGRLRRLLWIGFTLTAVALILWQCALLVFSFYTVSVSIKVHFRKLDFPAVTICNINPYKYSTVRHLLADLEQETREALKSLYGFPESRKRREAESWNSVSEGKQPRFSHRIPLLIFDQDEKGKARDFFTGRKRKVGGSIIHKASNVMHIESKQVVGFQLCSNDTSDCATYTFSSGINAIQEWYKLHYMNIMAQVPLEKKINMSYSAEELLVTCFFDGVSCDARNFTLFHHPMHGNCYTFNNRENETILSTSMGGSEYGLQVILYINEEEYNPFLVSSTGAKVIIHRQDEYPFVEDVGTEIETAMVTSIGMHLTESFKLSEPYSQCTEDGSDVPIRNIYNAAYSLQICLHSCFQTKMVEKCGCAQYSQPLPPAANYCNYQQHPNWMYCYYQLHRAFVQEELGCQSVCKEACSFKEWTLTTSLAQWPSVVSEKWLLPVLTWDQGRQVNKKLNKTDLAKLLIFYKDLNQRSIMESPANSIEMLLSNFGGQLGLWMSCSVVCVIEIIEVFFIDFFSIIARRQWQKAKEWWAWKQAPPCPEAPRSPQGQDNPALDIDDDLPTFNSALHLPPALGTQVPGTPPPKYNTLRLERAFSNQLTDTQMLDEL
Description: Human Bronchial Epithelial cells (HBECs) (Cambrex) were cultured under air-liquid interface conditions to provide a well differentiated mucociliary phenotype.
HBECs were cultured using a modification of the method described by Gray and colleagues
(Gray et al., 1996). Cells were seeded in plastic T-162 flasks and were grown in bronchial epithelial cell growth medium (BEGM; Cambrex) supplemented with bovine pituitary extract (52 μg/mL), hydrocortisone (0.5 μg/mL), human recombinant epidermal growth factor ([…]), epinephrine (0.5 μg/mL), transferrin (10 μg/mL), insulin (5 μg/mL), retinoic acid (0.1 μg/mL), triiodothyronine ([…]), gentamycin (50 μg/mL) and amphotericin B (50 μg/mL). Medium was changed every 48 hours until cells were 90% confluent. Cells were then passaged and seeded (8.25×10^5 cells/insert) on polycarbonate Snapwell inserts (Costar) in differentiation media containing 50% DMEM in BEGM with the same supplements as above but without triiodothyronine and a final retinoic acid concentration of 50 nM (all-trans retinoic acid). Cells were maintained submerged for the first 7 days in culture, after which time they were exposed to an apical air interface for the remainder of the culture period. At this time, media was changed to DMEM:F12 media containing 2% v/v Ultroser G for the remainder of culture. Amphotericin B was removed from all media 3 feeds prior to use in the Ussing Chambers. Cells were used between days 7 and 21 after establishment of the apical-air interface. At all stages of culture, cells were maintained at 37° C. in 5% CO2 in an air incubator.
Snapwell inserts were mounted in Vertical Diffusion Chambers (Costar) and were bathed with continuously gassed Ringer solution (5% CO2 in O2; pH 7.4) maintained at 37° C. containing (in mM): 120 NaCl, 25 NaHCO3, 3.3 KH2PO4, 0.8 K2HPO4, 1.2 CaCl2, 1.2 MgCl2, and 10 glucose. The solution osmolarity was between 280 and 300 mOsmol/kg H2O for all physiological salt solutions used. Cells were voltage clamped to 0 mV (model EVC4000; WPI). RT was measured by applying a 1- or 2-mV pulse at 30-s intervals and calculating RT by Ohm's law. Data were recorded using a PowerLab workstation (ADInstruments).
Test compounds were prepared as a 10 mM stock solution in DMSO (95%). Serial 3-fold dilutions were freshly prepared in an appropriate vehicle (distilled H2O or Ringers solution). […] At the completion of the concentration-response experiment, amiloride (10 μM) was added into the apical chamber to enable the total amiloride-sensitive current to be measured. […]
Results are expressed as the mean % inhibition of the amiloride-sensitive ISC. […] Cell inserts were typically run in duplicate and the IC50 calculated on the mean % inhibition data.

Compared with `N=C(NCCCC(=O)N(Cc1ccccc1)[C@H]1CC2CC[C@H](C1)N2Cc1ccccc1)NC(=O)c1nc(Cl)c(N)nc1N` [Example 12], `N=C(NCCCCNC(=O)Cc1ccccc1)NC(=O)c1nc(Cl)c(N)nc1N` [Example 25] is 3.7-fold lower in IC50: 65.9 nM for the first, 18 nM for the second.

First: N=C(NCCCCCCNS(=O)(=O)c1cccc2ccccc12)NC(=O)c1nc(Cl)c(N)nc1N [Example 3]
Second: COC(=O)[C@H](CCCCNC(=N)NC(=O)c1nc(Cl)c(N)nc1N)NS(=O)(=O)c1ccc(C)cc1 [Example 17, (S)-6-[N′-(3,5-Diamino-6-chloro-pyrazine-2-carbonyl)-guanidino]-2-(toluene-4 sulfonylamino)-hexanoic acid methyl ester trifluoroacetate]
The IC50 of the first is 2-fold lower: 16.4 nM for the first, 33 nM for the second. The first is the more potent here.
